Reference: patent publication US9683014B2, “Dipeptide mimetics of NGF and BDNF neurotrophins” (UCHREZHDENIE ROSSIISKOI AKADEMII MEDITSYNSKIKH NAUK …, priority 2009, dated 2017)
Numbered stars: 1 amine (or outer) side, 2 acyl side, 3 side chain; on linkers, the order of the positions; unused ones are H or OH. Bridge positions count the residues as written; N and C are the ends. Square brackets hold non-standard residues; d marks the D form. Peptide text beside a SMILES is read from it. I, II: the chains in the order shown. Ethylenediamine = C(CN[*:2])N[*:1]; Suc = O=C(CCC(=O)[*:2])[*:1]; Ahx = NCCCCCC(=O)O

Experiments:
HT-22 cells [1] = test: Oxidative stress (H2O2) model in cultured HT-22 cells (MTT test); type: cell-based, mouse; settings: for neuronal survival under oxidative stress: added 24 hours prior to the stress exposure, 10^−8 M to 10^−5 M; for Optical density (MTT): 24 h before H2O2
Procedure: To induce an oxidative stress, the cells were placed in a growth medium containing 5% FBS, then a freshly prepared H2O2 solution was added to a final concentration of 1.5 mM and incubated for 30 min at 37° C. and 5% CO2. Thereafter, the medium was replaced with a new one and the cells were cultured for 4 h under the same conditions.
The determination of cell viability was carried out by MTT test. […] At the end of an experiment the growth medium was replaced with an MTT solution (0.5 mg/ml) and incubated for 30 min at 37° C. and 5% CO2. The MTT solution was then removed from the wells and DMSO was added to dissolve the formazan precipitate. Then the optical density was measured using a Multiscan (Thermo) spectrophotometer at a wavelength of 600 nm.

Balb/c mice = test: Behavioral despair test according to Porsolt; type: in vivo, mouse; settings: GBK-201 at 0.01 and 0.1 mg/kg i.p., 24 h before the test
Procedure: In order to detect a potential antidepressant activity of the peptide BDNF mimetics, the behavioral despair test was used in the original version (Porsolt R. D., Anton G., Blavet N., Jalfre M. Behavioral despair in rats: a new model sensitive to antidepressants. European Journal of Pharmacology, 1978, 47, 379-391).
For these experiments, male Balb/c mice weighing 20-22 g were used. On day 1, the animals were placed in a narrow vessel filled with water at 22° C. for 10 min. 60 min later a test compound was administered intraperitoneally (GSB-106 at 1 mg/kg, GBK-108 and GBK-201 at 0.01, 0.1, 1.0, 10.0 mg/kg). 24 hours later the animals were placed again in the same conditions to record the retention time of the characteristic immobile posture (abandoning any active defensive and exploratory behavior) for a 5 min test period. Imipramine was administered 60 min prior to the 5 min test period (on day 2). The control groups were treated with distilled water. Each experimental group comprised at least 6 mice.

PC12 cells = test: Differentiation of PC12 cells and modulation of the differentiation-inducing activity of NGF; type: cell-based, rat; settings: for distance of branching points of the longest processes from the cell body / length of the longest processes: peptide + NGF (GK-3 10^−6 M, GK-4 10^−7 M, GK-5 10^−6 M)
Procedure: The rat adrenal […] pheochromocytoma cell line PC12 was obtained from the Cell Culture Museum, RAN Institute of Molecular Genetics. The immortalized mouse hippocampal cell line HT-22 was a gift from Prof. F. Viegant, Utrecht University, the Netherlands.
At the time of plating, either NGF (100 ng/ml, positive control) or a test compound was added to a final concentration of 10^−5 to 10^−9 M in the growth medium. Thereafter, the test peptides and NGF were added to the medium every 24 hours in one series of experiments and every 48 hours in another series, for a total of 6 days. The extent of cell differentiation was estimated on the basis of the shape and size of the cells and the number and length of the processes.
NGF was used as a positive control at a final concentration of 100 ng/ml.

Hsp70 = test: Western blot of Hsp70 in HT-22 cells; type: cell-based, mouse; settings: for amount of Hsp70: 24 h after addition, GK-1, GK-2 10^−8 and 10^−5 M, GK-3 10^−6 M, GK-4 10^−7 M, GK-5 10^−6 M
Procedure: (§1) The amount of Hsp70, Hsp32 and pTrkA was determined in the cytoplasmic fraction of HT-22 neuronal cells. For heat shock proteins, a test compound was added to the culture 24 hours prior to testing, before the cells were washed off the culture liquid with PBS. For pTrkA, a test compound was added to the culture immediately prior to the cell lysis just for 1 or 2 min, before the cells were washed off the culture liquid with PBS. Then the cells were mixed with the lysis buffer (50 mM Tris-HCl, 5 mM EDTA, 1 mM DTT, 1% Triton X-100, pH 7.5) at 4° C. and lysed for 5 min, then scraped off, transferred into a 1.5 ml centrifuge tube and centrifuged at 13000 rpm and 4° C. for 10 min. The supernatant containing cytosolic proteins was assayed by electrophoresis and immunoblotting. Proteins were separated on a 10% polyacrylamide gel (PAAG) and transferred from PAAG onto a PVDF membrane by electroelution for 45 min. Western blots were pre-incubated for 1 h in a TBST solution containing 1% Tween-20 and supplemented with 5% (w/v) skim milk. Western blots were then incubated with the primary polyclonal anti-Hsp32 antibody diluted 1:1000 or primary monoclonal anti-Hsp70 antibody diluted 1:1000 or primary monoclonal anti-phosphorylated tyrosine kinase A antibody diluted 1:1000 for 1 hour. Then the blots were washed and incubated with a secondary antibody conjugated to horseradish peroxidase (diluted 1:2000) for 1 hour. The detection of Hsp70, Hsp32 and pTrkA was carried out by the ECL reaction on a Kodak film.

Hsp32 = test: Western blot of Hsp32 in HT-22 cells; type: cell-based, mouse; settings: for amount of Hsp32: 24 h after addition, GK-1, GK-2 10^−8 and 10^−5 M, GK-3 10^−6 M, GK-4 10^−7 M, GK-5 10^−6 M
Procedure: as §1

tyrosine kinase A (TrkA) = molecular target: T1, tyrosine kinase A (TrkA) (Mus musculus, UniProt Q3UFB7); test: Tyrosine kinase A phosphorylation in HT-22 cells (Western blot); type: cell-based; settings: first minute of exposure
T1 construct: phosphorylation of tyrosine kinase A in cultured hippocampal neuronal cell line HT22; endogenous in cells; host or cells: HT-22 hippocampal neuronal cell line
Procedure: as §1

PC12 cell line = test: Cellular model of Parkinson's disease (MPTP, MTT test); type: cell-based, rat; settings: added 24 hours prior to MPTP 1 mM
Procedure: To produce a model for Parkinson's disease, MPTP was used at a final concentration of 1 mM (Shimoke K., Chiba H. Nerve growth factor prevents 1-methyl-[…]-1,2,3,6-tetrahydropyridine-induced cell death via the Akt pathway by suppressing caspase-3-like activity using PC12 cells: relevance to therapeutic application for Parkinson's disease. J. Neurosci. Res. 2001, 63, 402-409). MPTP was added to the cell growth medium containing 1% FBS at 24 hours after passage. The peptides were added to the cell growth medium concurrently with MPTP or 24 h before MPTP. Cell viability was determined at 24 h using an MTT test.

HT-22 cells [2] = settings: added 24 hours prior to glutamate
Procedure: The determination of cell viability was carried out by MTT test. MTT is a water soluble tetrazolium salt of yellow color which readily permeates cells. In living cells, MTT is converted into water insoluble formazan crystals of violet color. At the end of an experiment the growth medium was replaced with an MTT solution (0.5 mg/ml) and incubated for 30 min at 37° C. and 5% CO2. The MTT solution was then removed from the wells and DMSO was added to dissolve the formazan precipitate. Then the optical density was measured using a Multiscan (Thermo) spectrophotometer at a wavelength of 600 nm.

[3] = GK-1 10^−5 M added 30 minutes before GK-2

T1 sequence (Q3UFB7 34-799): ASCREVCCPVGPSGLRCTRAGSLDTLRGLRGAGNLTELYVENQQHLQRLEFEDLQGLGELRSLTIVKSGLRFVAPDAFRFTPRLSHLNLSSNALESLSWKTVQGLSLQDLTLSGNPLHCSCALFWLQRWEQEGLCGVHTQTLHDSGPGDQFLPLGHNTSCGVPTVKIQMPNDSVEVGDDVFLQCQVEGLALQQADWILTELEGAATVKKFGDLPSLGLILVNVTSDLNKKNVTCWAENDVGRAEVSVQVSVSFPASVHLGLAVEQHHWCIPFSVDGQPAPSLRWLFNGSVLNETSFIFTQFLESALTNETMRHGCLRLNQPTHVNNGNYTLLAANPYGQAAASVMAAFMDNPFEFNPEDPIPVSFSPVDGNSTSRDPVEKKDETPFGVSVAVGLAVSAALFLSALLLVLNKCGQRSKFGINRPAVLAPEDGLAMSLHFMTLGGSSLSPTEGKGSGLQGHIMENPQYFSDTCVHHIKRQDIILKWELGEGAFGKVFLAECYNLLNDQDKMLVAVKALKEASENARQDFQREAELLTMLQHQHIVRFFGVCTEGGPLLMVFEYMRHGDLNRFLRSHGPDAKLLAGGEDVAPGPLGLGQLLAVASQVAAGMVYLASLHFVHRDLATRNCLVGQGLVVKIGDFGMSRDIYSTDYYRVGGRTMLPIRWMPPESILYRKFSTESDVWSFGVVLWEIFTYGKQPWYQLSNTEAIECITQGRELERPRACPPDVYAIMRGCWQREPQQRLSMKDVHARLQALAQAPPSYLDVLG

Row | SMILES | neuronal survival under oxidative stress (HT-22 cells [1]) | amount of Hsp70 (Hsp70) | amount of Hsp32 (Hsp32) | level of phosphorylated tyrosine kinase A (tyrosine kinase A (TrkA)) | distance of branching points of the longest processes from the cell body (PC12 cells) | length of the longest processes (PC12 cells) | protective effect against MPTP (PC12 cell line) | further results
1 | NCCCC[C@H](NC(=O)[C@H](CCC(=O)O)NC(=O)CCC(=O)O)C(=O)NCCNC(=O)[C@H](CCCCN)NC(=O)[C@H](CCC(=O)O)NC(=O)CCC(=O)O [GK-2e, bis-(N-monosuccinyl-glutamyl-lysine)ethylenediamide] (I: Suc-Glu-Lys / II: Suc-Glu-Lys; linker I:C-II:C via Ethylenediamine) | improved the neuronal survival |  |  |  |  |  |  | 
2 | NCCCCCC(=O)NCC(=O)N[C@@H](CCCCN)C(=O)NCCCCCCNC(=O)[C@H](CCCCN)NC(=O)CNC(=O)CCCCCN [GK-6, bis-(N-(6-aminocaproyl)glycyl-lysine) hexamethylenediamide] | improved the neuronal survival |  |  |  |  |  |  | 
3 | CSCC[C@H](NC(=O)[C@H](CC(=O)O)NC(C)=O)C(N)=O [GBK-201, N-acetyl-aspartyl-methionine amide] (Ac-Asp-Met-NH2) |  |  |  |  |  |  |  | immobility time (Balb/c mice): increased the immobility time
4 | NCCCC[C@H](NC(=O)[C@H](CCC(=O)O)NC(=O)CCC(=O)O)C(N)=O [GK-1, N-monosuccinyl-glutamyl-lysine amide] (Suc-Glu-Lys-NH2) | impaired the neuronal survival | no effect | no effect | decreased |  |  |  | decrease of the differentiation-promoting effect of NGF (PC12 cells; GK-1 10^−5 M, counting differentiated and undifferentiated cells): 50%; effect on the neuroprotective effect of GK-2 (HT-22 cells [1]; [3]): eliminated the neuroprotective effect of GK-2; amount of Hsp70 induced by GK-2 (Hsp70; [3]): no increase; amount of Hsp32 induced by GK-2 (Hsp32; [3]): no increase
5 | NCCCCCC(=O)NCC(=O)N[C@@H](CCCCN)C(N)=O [GK-5, N-(6-aminocaproyl)-glycyl-lysine amide] (H-[Ahx]-Gly-Lys-NH2) | improved the neuronal survival | no effect on Hsp70 | increase in the synthesis of Hsp32 | increased | not different | 55 μm | inactive | differentiation of PC-12 cells (PC12 cells; peptide alone, 10^−8 to 10^−5 M, NGF 100 ng/ml as positive control): differentiation-promoting effect at 10^−6 M and 10^−5 M; Optical density (MTT) (HT-22 cells [1]; Table 1.8, 10^−5M, control 0.097 ± 0.009, H2O2 0.056 ± 0.009): 0.065 ± 0.008; Optical density (MTT) (HT-22 cells [1]; Table 1.8, 10^−6M, control 0.097 ± 0.009, H2O2 0.056 ± 0.009): 0.066 ± 0.008^; Optical density (MTT) (HT-22 cells [1]; Table 1.8, 10^−7M, control 0.097 ± 0.009, H2O2 0.056 ± 0.009): 0.062 ± 0.009; Optical density (MTT) (HT-22 cells [1]; Table 1.8, 10^−8M, control 0.097 ± 0.009, H2O2 0.056 ± 0.009): 0.058 ± 0.007
6 | NCCCC[C@H](NC(=O)[C@H](CCC(=O)O)NC(=O)CCC(=O)O)C(=O)NCCCCCC(=O)NCCCNC(=O)CCCCCNC(=O)[C@H](CCCCN)NC(=O)[C@H](CCC(=O)O)NC(=O)CCC(=O)O [GK-2a, bis-(N-monosuccinyl-glutamyl-lysyl-6-aminohexanoic acid) trimethylenediamide] | improved the neuronal survival |  |  |  |  |  | protective effect | Optical density (MTT) (HT-22 cells [1]; Table 1.5, 10^−5M, control 0.1275 ± 0.021, H2O2 0.087 ± 0.006): 0.108 ± 0.019^; Optical density (MTT) (HT-22 cells [1]; Table 1.5, 10^−6M, control 0.1275 ± 0.021, H2O2 0.087 ± 0.006): 0.429 ± 0.02; Optical density (MTT) (HT-22 cells [1]; Table 1.5, 10^−7M, control 0.1275 ± 0.021, H2O2 0.087 ± 0.006): 0.449 ± 0.024; Optical density (MTT) (HT-22 cells [1]; Table 1.5, 10^−8M, control 0.1275 ± 0.021, H2O2 0.087 ± 0.006): 0.106 ± 0.028
7 | NCCCC[C@H](NC(=O)[C@H](CCC(=O)O)NC(=O)CCC(=O)O)C(=O)NCCCCCNC(=O)[C@H](CCCCN)NC(=O)[C@H](CCC(=O)O)NC(=O)CCC(=O)O [GK-2b, bis-(N-monosuccinyl-glutamyl-lysine)pentamethylenediamide] | improved the neuronal survival |  |  |  |  |  |  | 
8 | CC(=O)NC(CCCCN)C(=O)NC(CCC(=O)O)C(=O)NCCCCCCNC(=O)C(CCC(=O)O)NC(=O)C(CCCCN)NC(C)=O (stereo not drawn) [GK-4, bis-(N-acetyl-lysyl-glutamic acid) hexamethylenediamide] |  | significant increase | no effect on Hsp32 |  | 20 μm | 65 μm | protective effect | Max. length of cell processes, μm on day 6 (PC12 cells; 10^−6M + NGF 30 ng/ml): 67 ± 4.5′ μm; Max. length of cell processes, μm on day 6 (PC12 cells; 10^−6M + NGF 50 ng/ml): 73 ± 9.5′ μm; Max. length of cell processes, μm on day 6 (PC12 cells; 10^−6M + NGF 100 ng/ml): 55 ± 11.3′ μm; Max. length of cell processes, μm on day 6 (PC12 cells; 10^−7M + NGF 30 ng/ml): 52 ± 10.3′ μm; Max. length of cell processes, μm on day 6 (PC12 cells; 10^−7M + NGF 50 ng/ml): 56 ± 13.2′ μm; Max. length of cell processes, μm on day 6 (PC12 cells; 10^−7M + NGF 100 ng/ml): 65 ± 12.2′ μm; intercalary neurons in the differentiated cell population (PC12 cells; GK-4 10^−7 M + NGF): 90%; protective effect against glutamate cytotoxicity (HT-22 cells [2]): protective effect
9 | CC(=O)N[C@@H](CCCCN)C(=O)N[C@@H](CCC(=O)O)C(N)=O [GK-3, N-acetyl-lysyl-glutamic acid amide] (Ac-Lys-Glu-NH2) | improved the neuronal survival | no effect on Hsp70 | small increase | increased | 25 μm | not significantly different | protective effect | Optical density (MTT) (HT-22 cells [1]; Table 1.6, 10^−5M, control 0.111 ± 0.009, H2O2 0.093 ± 0.004): 0.109 ± 0.019; Optical density (MTT) (HT-22 cells [1]; Table 1.6, 10^−6M, control 0.111 ± 0.009, H2O2 0.093 ± 0.004): 0.110 ± 0.014^; Optical density (MTT) (HT-22 cells [1]; Table 1.6, 10^−7M, control 0.111 ± 0.009, H2O2 0.093 ± 0.004): 0.099 ± 0.014; Optical density (MTT) (HT-22 cells [1]; Table 1.6, 10^−8M, control 0.111 ± 0.009, H2O2 0.093 ± 0.004): 0.091 ± 0.014
